This is an account of results in ChEMBL document CHEMBL2396593, “Targeting mutant KRAS for anticancer therapeutics: a review of novel small molecule modulators” (J Med Chem, 2013).

Test [1] has as its system DLD-1. Put plainly: Selectivity ratio of IC50 for mutant KRAS allele-deficient human DLD1 cells to IC50 for human DLD1 cells harboring mutant KRAS. It is filed as functional.
For test [2], the system named is DLD-1. Put plainly: Cytotoxicity against human DLD1 cells harboring mutant KRAS. It is filed as functional, cell-based.
Test [3] deals with DLD-1. Briefly: Cytotoxicity against mutant KRAS allele-deficient human DLD1 cells. It is filed as functional, cell-based.
The nature of test [4]: Inhibition of yeast Rce1p using yeast a-factor mating pheromone substrate. Also noted: species or system Saccharomyces cerevisiae.
Test [5] can be described thus: Inhibition of human Rce1p using quenched fluorogenic substrate by fluorescence assay.
The subject of test [6] is DLD-1. Briefly: Antiproliferative activity against human DLD1 cells expressing KRAS mutant at 25 nM. It is filed as functional.
The subject of test [7] is GTPase KRas (Homo sapiens), P01116 [G12D]. Briefly: Binding affinity to KRAS G12D mutant (unknown origin).
The target in test [8] is T1, GTPase KRas (Homo sapiens, UniProt P01116). Briefly: Inhibition of full-length human KRas4B (amino acids 1 to 188)-SOS interaction assessed as inhibition of SOS-mediated nucleotide release activity.
T1 sequence (P01116 whole entry, the tested form may be a part): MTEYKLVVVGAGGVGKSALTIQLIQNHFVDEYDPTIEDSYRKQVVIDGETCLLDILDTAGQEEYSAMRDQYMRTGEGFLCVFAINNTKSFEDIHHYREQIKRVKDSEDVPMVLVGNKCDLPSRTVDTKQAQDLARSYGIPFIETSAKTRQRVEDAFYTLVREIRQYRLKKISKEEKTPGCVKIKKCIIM
In test [9] the target is T1, GTPase KRas. Briefly: Inhibition of full-length human KRas4B (amino acids 1 to 188)-SOS interaction assessed as inhibition of nucleotide exchange activity.
Test [10] concerns Mus musculus. Put plainly: Inhibition of MEK1-mediated ERK phosphorylation in human HT-29 cells xenografted in nude mouse assessed as plasma concentration required for inhibition at 100 mg/kg, po administered as single dose measured after 1 to 12 hrs by Western blot analysis. It is filed as functional, organism-based. Also noted: dose 100 mg/kg, route oral. The following applies: HT-29, Plasma. On the technique in general: Xenograft models place foreign cells or tissue in a host animal.

Test [11] concerns Mus musculus. Put plainly: Inhibition of MEK1-mediated ERK phosphorylation in human LOX cells xenografted in nude mouse assessed as plasma concentration required for inhibition at 100 mg/kg, po administered as single dose measured after 1 to 12 hrs by Western blot analysis. It is filed as functional, organism-based. Also noted: dose 100 mg/kg, route oral.
Test [12] deals with T2, Dual specificity mitogen-activated protein kinase kinase 1 (Homo sapiens, UniProt Q02750). Briefly: Inhibition of MEK1 (unknown origin).
T2 sequence (Q02750 whole entry): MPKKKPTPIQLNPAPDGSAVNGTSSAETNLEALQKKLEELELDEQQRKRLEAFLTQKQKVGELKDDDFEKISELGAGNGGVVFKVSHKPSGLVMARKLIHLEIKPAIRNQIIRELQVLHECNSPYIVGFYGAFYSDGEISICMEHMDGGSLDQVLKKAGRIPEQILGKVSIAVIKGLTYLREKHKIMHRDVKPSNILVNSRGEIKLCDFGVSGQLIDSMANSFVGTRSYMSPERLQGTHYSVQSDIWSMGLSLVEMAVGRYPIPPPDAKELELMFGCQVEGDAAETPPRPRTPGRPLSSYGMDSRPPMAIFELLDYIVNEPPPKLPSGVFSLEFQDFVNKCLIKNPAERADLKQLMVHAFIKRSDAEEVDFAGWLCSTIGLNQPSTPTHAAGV
For test [13], the system named is MEF. Briefly: Antitumor activity against MEF harboring KRAS G12D mutant allografted in p53-null mouse assessed as reduction in tumor weight relative to control. It is filed as functional. Also noted: scale not given: the % may be the effect or the level left.
Test [14] has as its system MEF. Put plainly: Cytotoxicity against MEF harboring KRAS G12D mutant by ATP-based cell viability assay. The settings on record: Mus musculus. It is filed as functional.
Test [15] concerns MEF. Briefly: Antitumor activity against MEF harboring KRAS G12D mutant allografted in p53-null mouse assessed as reduction in tumor volume relative to control. It is filed as functional. Also noted: scale not given: the % may be the effect or the level left.
Test [16] in a line: Antitumor activity against human H460 cells xenograft model assessed as increase in host survival at 100 mg/kg, ip relative to solvent control (reference value: 24 days). It is filed as functional, NCI-H460. The following applies: route intraperitoneal.
In the next test the test system is A549. Put plainly: Cytotoxicity against human A549 cells by SRB assay. It is filed as functional, cell-based. On the technique in general: Sulforhodamine B stains cellular protein and so reports cell mass.
The nature of test [17]: Antitumor activity against human H460 cells xenograft model assessed as tumor growth inhibition at 100 mg/kg, ip relative to solvent control. It is filed as functional. The following applies: NCI-H460, ip, route intraperitoneal, read-out: TGI.
A further test deals with NCI-H2122. Put plainly: Cytotoxicity against human NCI-H2122 cells by SRB assay. It is filed as functional, cell-based.
Test [18] is described as follows: Cytotoxicity against human NCI-H2887 cells by SRB assay. It is filed as functional, cell-based.
Test [19] is described as follows: Cytotoxicity against human T29Kt1 cells by SRB assay.
Test [20] in a line: Cytotoxicity against human H460 cells by SRB assay. The following applies: NCI-H460. It is filed as functional, cell-based.
A short description of test [21]: Inhibition of MEK/ERK (unknown origin). Also noted: species or system Homo sapiens.
Test [22] concerns the target RAF proto-oncogene serine/threonine-protein kinase (Homo sapiens, UniProt P04049). Put plainly: Inhibition of cRAF (unknown origin) by Caliper assay.
Test [23] in a line: Inhibition of cRaf/MEK/ERK (unknown origin). Also noted: species or system Homo sapiens.
In test [24] the target is T2, Dual specificity mitogen-activated protein kinase kinase 1. Put plainly: Non-competitive inhibition of MEK1 (unknown origin) kinase activity using fluorescent peptide as substrate by fluorescence assay in presence of ATP.

Where only a bound is given, the exact number is not on record here.

Sequence of GTPase KRas (Homo sapiens), P01116 [G12D] (P01116 whole entry G12D, looked up, the tested form may be a part): as the sequence (P01116 whole entry, the tested form may be a part) above, with G12D counted along it
Sequence of RAF proto-oncogene serine/threonine-protein kinase (P04049 whole entry): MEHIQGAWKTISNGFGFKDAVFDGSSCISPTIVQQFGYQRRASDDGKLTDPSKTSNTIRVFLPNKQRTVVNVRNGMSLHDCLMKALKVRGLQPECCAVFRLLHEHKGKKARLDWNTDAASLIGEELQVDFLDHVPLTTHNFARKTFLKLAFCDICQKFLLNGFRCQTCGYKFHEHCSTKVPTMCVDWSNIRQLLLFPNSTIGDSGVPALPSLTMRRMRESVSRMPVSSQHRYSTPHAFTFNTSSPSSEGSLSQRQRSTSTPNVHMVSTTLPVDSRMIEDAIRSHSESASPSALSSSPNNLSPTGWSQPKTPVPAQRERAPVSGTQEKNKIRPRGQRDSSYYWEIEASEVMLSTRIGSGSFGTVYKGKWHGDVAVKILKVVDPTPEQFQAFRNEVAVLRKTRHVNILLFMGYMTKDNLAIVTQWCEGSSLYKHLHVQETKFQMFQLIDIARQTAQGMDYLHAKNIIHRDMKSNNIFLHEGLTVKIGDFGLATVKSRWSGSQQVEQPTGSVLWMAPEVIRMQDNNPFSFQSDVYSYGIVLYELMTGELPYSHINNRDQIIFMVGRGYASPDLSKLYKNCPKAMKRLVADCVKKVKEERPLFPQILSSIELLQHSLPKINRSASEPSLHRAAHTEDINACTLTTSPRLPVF

The IC50 is the concentration that gives 50% inhibition. On to `c1ccc(-c2nn(-c3ccccc3)[n+](-c3ccccc3)n2)cc1`, for which, in the test on DLD-1 [1], the “Ratio IC50” value was found to be 6. Besides, the results for the 50% inhibitory concentration (IC50) in the test with DLD-1 [2] and in the test on DLD-1 [3] were 2 µg/mL and 12 µg/mL, respectively.

As to `O=C(O)c1ccc(NC(c2ccccc2)c2ccc3cccnc3c2O)cc1` (stereo unspecified), the half-inhibitory concentration (IC50) was found to be 6 µM in test [4] and 0.4 µM in [5].

By inhibition is commonly meant the share of the control response that was lost under treatment. The compound `CC[C@@H]1C(=O)N(C)c2cnc(Nc3ccc(C(=O)NC4CCN(C)CC4)cc3OC)nc2N1C1CCCC1` [BI-2536] showed an inhibition at 0.025 µM with DLD-1 [6] above 50%.

For the compound `CCCC(c1cc(C(C)(C)C)c(O)cc1C)c1cc(C(C)(C)C)c(O)cc1C`, the IC50 is 6 µM in [4] and 0.4 µM in test [5].

`Cc1[nH]c2ccccc2c1Cc1nc2ccccc2[nH]1`: in test [7], the Activity was found to be 1.3 mM.

On to `NC(=O)c1nnn(Cc2cc(Cl)c(C(=O)c3ccc(Cl)cc3)c(Cl)c2)c1N` [CARBOXYAMIDOTRIAZOLE], for which the values for the concentration for half-maximal inhibition (IC50) in test [4] and in test [5] were 6 µM and 0.4 µM, respectively.

As to `Cc1[nH]c2cc(Cl)cc(Cl)c2c1CCN`, the results for the IC50 at GTPase KRas [8] and at GTPase KRas [9] were 155 µM and 342 µM, respectively.

As usually defined, the EC50 is the concentration needed to bring the measured effect to its halfway point. As for `C[C@H](CO)COc1ccc([C@H]2NC(=O)N([C@H](C(=O)Nc3ccc(I)cc3F)[C@@H](C)c3ccccc3)C2=O)cc1`, the EC50 is 3.35 µM with Mus musculus [10] and 1.36 µM in the test with Mus musculus [11]. The compound also displayed an IC50 in test [12] of 0.025 µM.

In the case of `CC[C@H](C)[C@H](N)C(=O)Nc1ccc2nc(Cc3c[nH]c4ccccc34)[nH]c2c1`, in test [7], the Activity turned out to be 0.19 mM.

With `C[C@H](CN1CCCC1)C(=O)c1ccc(C(F)(F)F)cc1` [LANPERISONE], the Activity in the test on MEF [13] was determined as 37%; in the test on MEF [15] it was 24%. This compound also registered an IC50 in the test on MEF [14] of 4 µM.

For `O=Cc1cn(Cc2ccc(Cl)cc2)c2ccccc12`, the Survival in test [16] came out at 32 days. For the same compound, the half-inhibitory concentration (IC50) was at most 3 µM in the test with A549; at most 3 µM with NCI-H2122; at most 3 µM in [18]; 4.81 µM in test [19]; at most 3 µM in [20]. Besides, in [17], the inhibition in vivo at 100 mg/kg is 75.4%.

In general, Ki refers to a dissociation constant, usually derived from enzyme kinetics or from competition with a known ligand. Turning to `CCC(=O)c1csc(NC(=O)[C@H]([C@@H](C)c2ccccc2)N2C(=O)N[C@H](c3ccc(OCCO)cc3)C2=O)n1`, the Ki in test [21] is 0.184 µM; in test [22], above 50 µM; in [23], 0.053 µM. Besides, the IC50 in test [24] amounted to 0.023 µM.
